Measurements as given in ChEMBL document CHEMBL2380264, “Synthesis and antitumor activity of 1,3,4-oxadiazole possessing 1,4-benzodioxan moiety as a novel class of potent methionine aminopeptidase type II inhibitors” (Bioorg Med Chem Lett, 2013).

Tests used:
[1] = Cytotoxicity against HUVEC after 24 hrs by MTT assay; assay type: cell-based; details: human, HUVEC cells
[2] = test system: HUVEC; assay: Antiproliferative against HUVEC after 48 hrs by MTT assay; details: Homo sapiens
[3] = test system: HUVEC; assay: Induction of apoptosis in HUVEC assessed as early apoptotic cells at 2 uM after 24 hrs by annexin V-FITC/propidium iodide staining-based FACS flow cytometric analysis (reference value: 0.02%); assay type: functional, Homo sapiens
[4] = test system: HUVEC; assay: Induction of apoptosis in HUVEC assessed as early apoptotic cells at 0.5 uM after 24 hrs by annexin V-FITC/propidium iodide staining-based FACS flow cytometric analysis (reference value: 0.02%); assay type: functional, Homo sapiens
[5] = test system: HUVEC; assay: Induction of apoptosis in HUVEC assessed as dead cells at 1 uM after 24 hrs by annexin V-FITC/propidium iodide staining-based FACS flow cytometric analysis (reference value: 2.82%); assay type: functional, Homo sapiens
[6] = test system: HUVEC; assay: Induction of apoptosis in HUVEC assessed as late apoptotic cells at 1 uM after 24 hrs by annexin V-FITC/propidium iodide staining-based FACS flow cytometric analysis (reference value: 0.09%); assay type: functional, Homo sapiens
[7] = test system: HUVEC; assay: Induction of apoptosis in HUVEC assessed as viable cells at 4 uM after 24 hrs by annexin V-FITC/propidium iodide staining-based FACS flow cytometric analysis (reference value: 96.26%); assay type: functional; details: Homo sapiens, read-out: Activity
[8] = test system: HUVEC; assay: Induction of apoptosis in HUVEC assessed as late apoptotic cells at 0.5 uM after 24 hrs by annexin V-FITC/propidium iodide staining-based FACS flow cytometric analysis (reference value: 0.09%); assay type: functional, Homo sapiens
[9] = test system: HUVEC; assay: Induction of apoptosis in HUVEC assessed as viable cells at 1 uM after 24 hrs by annexin V-FITC/propidium iodide staining-based FACS flow cytometric analysis (reference value: 96.26%); assay type: functional; details: Homo sapiens, read-out: Activity
[10] = test system: HUVEC; assay: Induction of apoptosis in HUVEC assessed as late apoptotic cells at 4 uM after 24 hrs by annexin V-FITC/propidium iodide staining-based FACS flow cytometric analysis (reference value: 0.09%); assay type: functional, Homo sapiens
[11] = test system: HUVEC; assay: Induction of apoptosis in HUVEC assessed as early apoptotic cells at 1 uM after 24 hrs by annexin V-FITC/propidium iodide staining-based FACS flow cytometric analysis (reference value: 0.02%); assay type: functional, Homo sapiens
[12] = test system: HUVEC; assay: Induction of apoptosis in HUVEC assessed as early apoptotic cells at 4 uM after 24 hrs by annexin V-FITC/propidium iodide staining-based FACS flow cytometric analysis (reference value: 0.02%); assay type: functional, Homo sapiens
[13] = test system: HUVEC; assay: Induction of apoptosis in HUVEC assessed as viable cells at 0.5 uM after 24 hrs by annexin V-FITC/propidium iodide staining-based FACS flow cytometric analysis (reference value: 96.26%); assay type: functional; details: Homo sapiens, read-out: Activity
[14] = test system: HUVEC; assay: Induction of apoptosis in HUVEC assessed as viable cells at 2 uM after 24 hrs by annexin V-FITC/propidium iodide staining-based FACS flow cytometric analysis (reference value: 96.26%); assay type: functional; details: Homo sapiens, read-out: Activity
[15] = test system: HUVEC; assay: Induction of apoptosis in HUVEC assessed as dead cells at 0.5 uM after 24 hrs by annexin V-FITC/propidium iodide staining-based FACS flow cytometric analysis (reference value: 2.82%); assay type: functional, Homo sapiens
[16] = test system: HUVEC; assay: Induction of apoptosis in HUVEC after 24 hrs by annexin V-FITC/propidium iodide staining-based FACS flow cytometric analysis; assay type: functional, cell-based; details: Homo sapiens
[17] = test system: HUVEC; assay: Induction of apoptosis in HUVEC assessed as dead cells at 2 uM after 24 hrs by annexin V-FITC/propidium iodide staining-based FACS flow cytometric analysis (reference value: 2.82%); assay type: functional, Homo sapiens
[18] = test system: HUVEC; assay: Induction of apoptosis in HUVEC assessed as late apoptotic cells at 2 uM after 24 hrs by annexin V-FITC/propidium iodide staining-based FACS flow cytometric analysis (reference value: 0.09%); assay type: functional, Homo sapiens
[19] = test system: HUVEC; assay: Induction of apoptosis in HUVEC assessed as dead cells at 4 uM after 24 hrs by annexin V-FITC/propidium iodide staining-based FACS flow cytometric analysis (reference value: 2.82%); assay type: functional, Homo sapiens
[20] = molecular target: Methionine aminopeptidase 2 (Homo sapiens, UniProt P50579); assay: Inhibition of MetAP2 (unknown origin) after 4 hrs
Chain of Methionine aminopeptidase 2 (P50579 whole entry): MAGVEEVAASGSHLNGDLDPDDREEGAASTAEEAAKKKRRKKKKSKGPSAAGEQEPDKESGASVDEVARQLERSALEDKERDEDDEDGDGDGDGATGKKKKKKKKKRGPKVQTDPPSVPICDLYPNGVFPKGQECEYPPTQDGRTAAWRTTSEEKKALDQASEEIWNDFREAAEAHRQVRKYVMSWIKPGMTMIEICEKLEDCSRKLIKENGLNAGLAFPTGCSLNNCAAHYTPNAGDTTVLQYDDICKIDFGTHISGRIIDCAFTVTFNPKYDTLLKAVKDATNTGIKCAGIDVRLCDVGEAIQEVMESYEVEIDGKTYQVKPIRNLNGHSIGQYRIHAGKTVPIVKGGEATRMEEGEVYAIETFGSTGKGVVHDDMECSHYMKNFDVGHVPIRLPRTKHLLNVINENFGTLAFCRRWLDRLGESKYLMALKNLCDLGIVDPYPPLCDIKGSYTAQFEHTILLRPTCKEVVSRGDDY

| Structure (SMILES) | CC50 at 24 h [1] | IC50 [2] | further results |
| --- | --- | --- | --- |
| COc1ccc(/C=C/c2nnc(-c3ccc4c(c3)OCCO4)o2)cc1 | 312 µM | > 50 µM |  |
| Clc1ccc(/C=C/c2nnc(-c3ccc4c(c3)OCCO4)o2)cc1 | 312 µM | 8.03 µM |  |
| Cc1ccc(/C=C/c2nnc(-c3ccc4c(c3)OCCO4)o2)cc1 | 265 µM | 45.2 µM |  |
| COc1cccc(/C=C/c2nnc(-c3ccc4c(c3)OCCO4)o2)c1 | 332 µM | > 50 µM |  |
| Clc1ccccc1/C=C/c1nnc(-c2ccc3c(c2)OCCO3)o1 | 368 µM | 7.71 µM |  |
| Brc1ccccc1/C=C/c1nnc(-c2ccc3c(c2)OCCO3)o1 | 287 µM | 8.89 µM |  |
| O=[N+]([O-])c1ccc(/C=C/c2nnc(-c3ccc4c(c3)OCCO4)o2)cc1 | 299 µM | 32.1 µM |  |
| Brc1cccc(/C=C/c2nnc(-c3ccc4c(c3)OCCO4)o2)c1 | 322 µM | 13.5 µM |  |
| Cc1ccccc1/C=C/c1nnc(-c2ccc3c(c2)OCCO3)o1 | 356 µM | 40.5 µM |  |
| O=[N+]([O-])c1cccc(/C=C/c2nnc(-c3ccc4c(c3)OCCO4)o2)c1 | 309 µM | 30.1 µM |  |
| O=[N+]([O-])c1ccccc1/C=C/c1nnc(-c2ccc3c(c2)OCCO3)o1 | 323 µM | 25 µM |  |
| Fc1ccccc1/C=C/c1nnc(-c2ccc3c(c2)OCCO3)o1 | 402 µM | 1.16 µM | Activity [3]: 3.01%; Activity [4]: 1.07%; Activity [5]: 26.68%; Activity [6]: 14.01%; viability at 4 µM [7]: 39.5%; Activity [8]: 5.22%; viability at 1 µM [9]: 56.6%; Activity [10]: 25.61%; Activity [11]: 2.69%; Activity [12]: 8.64%; viability at 0.5 µM [13]: 63.5%; viability at 2 µM [14]: 49.3%; Activity [15]: 30.26%; Activity [16]: Dose-dependent effect; Activity [17]: 31.26%; Activity [18]: 16.4%; Activity [19]: 26.23% |
| Fc1ccc(/C=C/c2nnc(-c3ccc4c(c3)OCCO4)o2)cc1 | 325 µM | 4.96 µM |  |
| Brc1ccc(/C=C/c2nnc(-c3ccc4c(c3)OCCO4)o2)cc1 | 491 µM | 22.3 µM |  |
| NNC(=O)c1ccc2c(c1)OCCO2 | 200 µM | > 50 µM |  |
| Cc1cccc(/C=C/c2nnc(-c3ccc4c(c3)OCCO4)o2)c1 | 201 µM | 40.6 µM |  |
| C(=C\c1nnc(-c2ccc3c(c2)OCCO3)o1)/c1ccccc1 | 209 µM | > 50 µM |  |
| CO[C@@H]1[C@H](OC(=O)NC(=O)CCl)CC[C@]2(CO2)[C@H]1[C@@]1(C)O[C@@H]1CC=C(C)C [O-CHLOROACETYLCARBAMOYLFUMAGILLOL] |  | 1.96 µM | IC50 [20]: 1320 nM |
| Fc1cccc(/C=C/c2nnc(-c3ccc4c(c3)OCCO4)o2)c1 | 295 µM | 3.53 µM |  |
